Test results from US9796686B2, “Antibacterial quinazoline-4(3H)-one derivatives” (priority 2014, dated 2017).
In brackets after ≈: the same amount, converted by molar mass. Where two headings read alike, the source gives them in different places.

How the values were obtained:
Assay type in all cases: cell-based
[1] = test system: wild-type E. coli A-1261; experiment: MIC against wild-type E. coli A-1261 with or without alkaline phosphatase or esterase; details: Escherichia coli
Procedure: Minimal Inhibitory Concentrations (MICs; mg/L) were determined in cation-adjusted Mueller-Hinton Broth by a microdilution method following the description given in “Methods for Dilution Antimicrobial Susceptibility Tests for Bacteria that Grow Aerobically”, Approved standard, 7th ed., Clinical and Laboratory Standards Institute (CLSI) Document M7-A7, Wayne, Pa., U.S.A. (2006). The compound of Example 31 was tested against wild-type E. coli A-1261 in the absence of alkaline phosphatase, in the presence of an alkaline phosphatase and in the presence of an esterase. The corresponding antibacterial test results are given in Table 2 hereafter (MICs in mg/L).

[2] = test system: E. coli ATCC25922; experiment: Bacterial growth minimal inhibitory concentration, microdilution in cation-adjusted Mueller-Hinton Broth (CLSI M7-A7); details: Escherichia coli, ATCC25922; quinolone-sensitive strain; read-out: MIC for E. coli ATCC25922
Procedure: (§1) Minimal Inhibitory Concentrations (MICs; mg/L) were determined in cation-adjusted Mueller-Hinton Broth by a microdilution method following the description given in “Methods for Dilution Antimicrobial Susceptibility Tests for Bacteria that Grow Aerobically”, Approved standard, 7th ed., Clinical and Laboratory Standards Institute (CLSI) Document M7-A7, Wayne, Pa., U.S.A. (2006).
(§2) All Example compounds were tested against several Gram-positive and Gram-negative bacteria. […] K. pneumoniae A-651 is a multiply-resistant strain (in particular quinolone-resistant), while E. coli ATCC25922 and P. aeruginosa ATCC27853 are quinolone-sensitive strains.

[3] = test system: K. pneumoniae A-651; experiment: as above; details: Klebsiella pneumoniae, A651; multiply-resistant strain (in particular quinolone-resistant); read-out: MIC for K. Pneumoniae A-651
Procedure: as §1, §2

[4] = test system: P. aeruginosa ATCC27853; experiment: as above; details: Pseudomonas aeruginosa, ATCC27853; quinolone-sensitive strain; read-out: MIC for P. aeruginosa ATCC27853
Procedure: as §1, §2

MIC ([1]; alkaline phosphatase 2 i.U./mL, read-out: MIC for E. coli A-1261 In the presence of an alkaline phosphatase (2 i.U./mL))	MIC ([1]; esterase 10 i.U./mL, read-out: MIC for E. coli A-1261 In the presence of an esterase (10 i.U./mL))	MIC ([1]; no alkaline phosphatase or esterase, read-out: MIC for E. coli A-1261 In the absence of alkaline phosphatase or esterase)	MIC [2]	MIC [3]	MIC [4]	Compound
0.5 µg/mL	> 16 µg/mL	> 16 µg/mL				C[C@@](CCn1cnc2cc(C#CC#CC3(COP(=O)(O)O)CC3)ccc2c1=O)(C(=O)NO)S(C)(=O)=O [Example 31, (R)-(1-((3-(4-(hydroxyamino)-3-methyl-3-(methylsulfonyl)-4-oxobutyl)-4-oxo-3,4-dihydroquinazolin-7-yl)buta-1,3-diyn-1-yl)cyclopropyl)methyl dihydrogen phosphate]
			≤ 0.063 µg/mL	0.25 µg/mL (≈ 0.546 µM)	1 µg/mL (≈ 2.19 µM)	C[C@@](CCn1cnc2cc(C#CC#C[C@@H]3C[C@H]3CO)ccc2c1=O)(C(=O)NO)S(C)(=O)=O [Example 5, (R)-N-hydroxy-4-(7-(((1R,2R)-2-(hydroxymethyl)cyclopropyl)buta-1,3-diyn-1-yl)-4-oxoquinazolin-3(4H)-yl)-2-methyl-2-(methylsulfonyl)butanamide]
			0.25 µg/mL (≈ 0.526 µM)	0.5 µg/mL (≈ 1.05 µM)	0.5 µg/mL (≈ 1.05 µM)	C[C@@](CCn1cnc2cc(C#CC#C[C@H]3C[C@]3(F)CO)ccc2c1=O)(C(=O)NO)S(C)(=O)=O (relative stereo) [Example 33, (R)-4-(7-(((1R*,2R*)-2-fluoro-2-(hydroxymethyl)cyclopropyl)buta-1,3-diyn-1-yl)-4-oxoquinazolin-3(4H)-yl)-N-hydroxy-2-methyl-2-(methylsulfonyl)butanamide]
			1 µg/mL (≈ 2.16 µM)	1 µg/mL (≈ 2.16 µM)	2 µg/mL (≈ 4.32 µM)	CC(C)(O)C#CC#Cc1cc2ncn(CC[C@](C)(C(=O)NO)S(C)(=O)=O)c(=O)c2cc1F [Example 29, (R)-4-(6-fluoro-7-(5-hydroxy-5-methylhexa-1,3-diyn-1-yl)-4-oxoquinazolin-3(4H)-yl)-N-hydroxy-2-methyl-2-(methylsulfonyl)butanamide]
			4 µg/mL (≈ 8.14 µM)	4 µg/mL (≈ 8.14 µM)	4 µg/mL (≈ 8.14 µM)	C[C@@](CCn1cnc2cc(C#CC#CCC3(O)COC3)c(F)cc2c1=O)(C(=O)NO)S(C)(=O)=O [Example 35, (R)-4-(6-fluoro-7-(5-(3-hydroxyoxetan-3-yl)penta-1,3-diyn-1-yl)-4-oxoquinazolin-3(4H)-yl)-N-hydroxy-2-methyl-2-(methylsulfonyl)butanamide]
